In patent US20240398706A1, “INJECTABLE FORMULATIONS OF APREPITANT” (Good Health, LLC, priority 2021, published 2024):

Legend:
[1] = after oral administration; cited from earlier work
[2] = pH and clarity of 5.55 mg/mL sodium oleate solution; format: physicochemical; conditions: sodium oleate 5.55 mg/mL solution
Experimental: After the initial pH measurement discussed above, the compositions of this embodiment have a pH value of at least 7.5. In some embodiments the PH is in the range of between 7.5-10.5 or between 8.5-10.8. This pH value is observed a short period, e.g. a few days, after formation of the emulsion, and is to be contrasted with the initial pH value which is measured substantially immediately after the formation of the emulsion. Preferably, the fatty acid content of the oleate is high, e.g. at least about 80% and the alkalinity of oleate when tested as an aqueous solution is also relatively high, e.g. at least about pH of 10.3 of 0.55% W/V solution in water.

[3] = Emulsion formation of Form-81 with sodium oleate from different sources; format: physicochemical; conditions: Form-81 with sodium benzoate, after mixing oil and water phases and stirring
Experimental: The solution was heated to about 55-68° C., while stirring aprepitant was added and continued stirring until all of the drug is dissolved. After cooling to room temperature, Sodium oleate was added to mixture and stirred to get uniform dispersion. Ethanol quantity adjusted by adding ethanol to mixture to compensate loss. Weight of container was recorded at each stage.
Oil phase slowly added to water phase slowly while water phase stirred at 1000 RPM using overhead stirrer.
Coarse emulsion was milled using microfluidizer (Microfluidizer LM-25/30), […].

| SMILES | oral bioavailability [1] | Clarity [2] | Emulsion formation [3] | pH of 5.55 mg/mL solution [2] | Emulsion formation ([3]; listed as oleate from Loba Chemie) |
| --- | --- | --- | --- | --- | --- |
| C[C@@H](O[C@H]1OCCN(Cc2n[nH]c(=O)[nH]2)[C@H]1c1ccc(F)cc1)c1cc(C(F)(F)F)cc(C(F)(F)F)c1 [Aprepitant] | about 69% |  |  |  |  |
| CCCCCCCC/C=C\CCCCCCCC(=O)[O-].[Na+] [Sodium Oleate from Doosan, South Korea, Sodium Oleate] |  | Clear solution | slightly viscous emulsions |  |  |
| CCCCCCCC/C=C\CCCCCCCC(=O)[O-].[Na+] [Sodium Oleate from Lipoid, Germany, Sodium Oleate] |  | Hazy solution | slightly viscous emulsions | 10.36 |  |
| CCCCCCCC/C=C\CCCCCCCC(=O)[O-].[Na+] [Sodium Oleate from Loba Chemie, India, Sodium Oleate] |  | Clear solution | Free flowing emulsion. | 10.78 | free-flowing emulsion |
